# Assay results taken from patent publication US20130158024A1, “TRICYCLIC NECROSTATIN COMPOUNDS” (priority 2005, published 2013).
# “Also recorded” adds a separate entry of the source. Where two headings read alike, the source gives them in different places.
# Columns and labels:
# [1] = system: FADD-deficient Jurkat T cells treated with TNF-α; test: Inhibition of necroptosis (CICD) in FADD-deficient Jurkat T cells treated with TNF-α, ATP-based viability; type: cell-based, human
# U937 cells = test: Oxidative stress (menadione) induced death of U937 cells, ATP assay; type: cell-based, human; conditions: 250 μM menadione, 24 hours
# Procedure: Viability of TNFα/zVAD/DMSO or manadione/DMSO blank treated cells is also shown (- - -). Viability was determined using ATP-Lite-M assay (Packard). Numbers represent percentages of live cells. The values were normalized relative to the zVAD or DMSO treated controls, which were set as 100% viability.
# In this and subsequent panels, cell viability was determined via ATP assay. Numbers represent viability normalized to that of the DMSO-treated cells in the absence of TNFα and menadione. Throughout, error bars represent standard deviations. […] Representative images are shown. […] Protein lysates were subjected to western blotting with antibodies to LC3 and to tubulin. The ratio of LC3-II to tubulin signals was calculated (“Ratio”) and normalized to the value in the control sample. […] Alternatively, cells were treated with 2 μM rapamycin. […] Numbers represent viability normalized to that of the compound-treated cells in the absence of TNFα. In FIG. 28H, expression of beclin-1 (“Bec”) and tubulin (“Tub”) in the stable populations of cells in FIG. 28G was analyzed by western blotting.
# Jurkat T cells = test: Necrosis (CICD) of Jurkat T cells induced by Fas ligand, cycloheximide and zVAD, ATP assay; type: cell-based, human; conditions: FasL/CHX/zVAD
# Procedure: Jurkat cells were treated with 5 ng/ml of FasL without (A) or with cyclohexamide (CHX) (B) to induce apoptosis, or 5 ng/ml FasL, 1 μg/ml of CHX and 100 μM of zVAD.fmk to induce CICD (B). […] Cell viability was determined after 24 hours of incubation with indicated reagents using CellTiter-Glo ATP assay. The values represent viability relative to the control Jurkat cells without the treatment of FasL, which was set as 100% viability.
# FIG. 34A is a graph showing the results of treating Jurkat T cells with Fas ligand (5 ng/ml), cyclohexamide (1 μg/ml) and zVAD (100 μM) in the presence of the indicated amounts of anti-necrotic compounds (4) and (5). Viability was determined 36 hours later using an ATP assay. The viability values are relative to the samples lacking Fas ligand, which were used as 100% viability controls. FIG. 34B is a graph as in FIG. 34A, in which the anti-necrotic compounds are (19) and (20).
# Compounds were also tested in another necrosis assay utilizing human Jurkat T cells, Fas ligand to induce cell death, and zVAD to inhibit the apoptosis pathway. After 36 hours, cell viability was measure by the commercial CellTiter ATP cell viability assay (Promega).
# [2] = system: FADD deficient Jurkat cells; conditions: compound alone
# [3] = Homo sapiens, Jurkat, 24 h, read-out: EC50 (μM) for inhibition of necroptosis
melting point [°C],Molecule,"EC50 [1, 3] [µM]",further results
218 to 220,"CC(=O)N1N=C2c3cc(C)ccc3OC[C@H]2[C@@H]1c1ccc(F)cc1 (relative stereo) [Compound 184, (3R,3aS)-rel-2-acetyl-2,3,3a,4-tetrahydro-3-(4-fluorophenyl)-8-methyl-[1]benzopyrano[4,3-c]pyrazole]",> 100,
245,"COc1ccc2c(c1)C1=NN(C(C)=O)[C@@H](c3ccc(F)cc3)[C@H]1CO2 (relative stereo) [Compound 186, (3R,3aR)-rel-2-acetyl-2,3,3a,4-tetrahydro-3-(4-fluorophenyl)-8-methoxy-[1]benzopyrano[4,3-c]pyrazole]",4.8 ± 1.3,
189 to 193,"COc1ccc2c(c1)C1=NN(C(C)=O)[C@@H](c3ccc4c(c3)OCCO4)[C@H]1CC2 (relative stereo) [Compound 178, (3R,3aR)-rel-2-acetyl-3,3a,4,5-tetrahydro-3-(3,4-ethylenedioxyphenyl)-8-methoxy-2H-benz[g]indazole]",2.1 ± 0.65,
243 to 246,"CC(=O)N1N=C2c3cc(C)ccc3OC[C@@H]2[C@@H]1c1ccc(F)cc1 (relative stereo) [Compound 185, (3R,3aR)-rel-2-acetyl-2,3,3a,4-tetrahydro-3-(4-fluorophenyl)-8-methyl-[1]benzopyrano[4,3-c]pyrazole]",11.6 ± 6.1,
194 to 197,"COc1ccc2c(c1)C1=NN(C(C)=O)[C@@H](c3ccc4c(c3)OCCO4)[C@@H]1CC2 (relative stereo) [Compound 206, (3R,3aS)-rel-2-acetyl-3,3a,4,5-tetrahydro-3-(3,4-ethylenedioxyphenyl)-8-methoxy-2H-benz[g]indazole]",,
174 to 176,"COc1ccc2c(c1)C1=NN(C(C)=O)[C@@H](c3ccc(F)cc3)[C@@H]1CO2 (relative stereo) [Compound 211, (3R,3aS)-rel-2-acetyl-2,3,3a,4-tetrahydro-3-(4-fluorophenyl)-8-methoxy-[1]benzopyrano[4,3-c]pyrazole]",,
196 to 199,"COc1ccc2c(c1)C1=NN(C(C)=O)[C@@H](c3cccc(F)c3)[C@@H]1CC2 (relative stereo) [Compound 200, (3R,3aS)-rel-2-acetyl-3,3a,4,5-tetrahydro-3-(3-fluorophenyl)-8-methoxy-2H-benz[g]indazole]",,
166 to 168,"COc1ccc([C@H]2[C@@H]3CCc4ccc(OC)cc4C3=NN2C=O)cc1 (relative stereo) [Compound 195, (3R,3aS)-rel-2-formyl-3,3a,4,5-tetrahydro-3-(4-methoxyphenyl)-8-methoxy-2H-benz[g] indazole]",,

# The next lines start with the molecule.
Molecule,melting point [°C],"EC50 [1, 3] [µM]",further results
"CC(=O)N[C@@H](CS)C(=O)O [N-acetyl-cysteine, reference compound]",,,"protection from menadione induced cell death, in words (U937 cells): provided protection against menadione"
"CC(=O)N1N=C2c3ccccc3CC[C@@H]2[C@@H]1c1ccc(F)cc1 (relative stereo) [Compound 165, (3R,3aR)-rel-2-acetyl-3,3a,4,5-tetrahydro-3-(4-fluorophenyl)-2H-benz[g]indazole]",166 to 168,5.4 ± 1.1,
"COc1cc2c(cc1OC)C1=NN(C(C)=O)[C@@H](c3ccc(F)cc3)[C@H]1CC2 (relative stereo) [Compound 164, (3R,3aR)-rel-2-acetyl-3,3a,4,5-tetrahydro-3-(4-fluorophenyl)-7,8-dimethoxy-2H-benz[g]indazole]",189 to 193,> 100,
"O=C1NCCc2c(OCCCCN3CCCCC3)cccc21 [DPQ, 3,4-Dihydro-5[4(1-piperindinyl)butoxy]-1(2H)-isoquinoline, reference compound]",,,"inhibition of CICD/necrosis of Jurkat cells, in words (Jurkat T cells): failed to inhibit CICD of Jurkat cells"
"COc1ccc([C@H]2[C@H]3CCc4ccccc4C3=NN2C(C)=O)cc1 (relative stereo) [Compound 167, (3R,3aR)-rel-2-acetyl-3,3a,4,5-tetrahydro-3-(4-methoxyphenyl)-2H-benz[g]indazole]",257 to 260,0.84 ± 0.32,
CN1C(=O)NC(Cc2c[nH]c3c(Cl)cccc23)C1=O (stereo not drawn) [7-Cl—O-Nec-1],,,"antinecroptotic (anti-CICD) activity, in words ([1]; FADD-deficient Jurkat cells, TNFα): equally potent anti-CICD activity; also recorded: possessing antinecroptotic activity in vitro similar to that of 7-Cl-Nec-1; EC50 ([1]; Jurkat FADD deficient cells treated with TNFα, read-out: EC50): 0.206 ± 0.033 µM; LD50 (nonspecific toxicity) [2]: > 1 mM"
"COc1ccc2c(c1)C1=NN(C(C)=O)[C@@H](c3cccc(F)c3)[C@H]1CC2 (relative stereo) [Compound 166, (3R,3aR)-rel-2-acetyl-3,3a,4,5-tetrahydro-3-(3-fluorophenyl)-8-methoxy-2H-benz[g]indazole]",176 to 177,0.68 ± 0.009,
"O=c1[nH]c2ccccc2c2ccccc12 [6(5H)-Phenanthridione, reference compound]",,,"inhibition of CICD/necrosis of Jurkat cells, in words (Jurkat T cells): failed to inhibit CICD of Jurkat cells"
superoxide dismutase [reference compound],,,"protection from menadione induced cell death, in words (U937 cells): provided protection against menadione"
catalase [reference compound],,,"protection from menadione induced cell death, in words (U937 cells): provided protection against menadione"
vitamin E [reference compound],,,"protection from menadione induced cell death, in words (U937 cells): provided protection against menadione"
"COc1ccc2c(c1)C1=NN(C(C)=O)[C@@H](c3ccc4c(c3)OCO4)[C@H]1CC2 (relative stereo) [Compound 177, (3R,3aR)-rel-2-acetyl-3,3a,4,5-tetrahydro-3-(3,4-methylenedioxyphenyl)-8-methoxy-2H-benz[g]indazole]",206 to 209,2.6 ± 1.3,
"COc1ccc2c(c1)C1=NN(C(C)=O)[C@@H](c3ccc(F)cc3)[C@H]1CC2 (relative stereo) [Compound 161, (3R,3aR)-rel-2-acetyl-3,3a,4,5-tetrahydro-3-(4-fluorophenyl)-8-methoxy-2H-benz[g]indazole]",,0.96 ± 0.085,"inhibition of CICD/necrosis of Jurkat cells, in words (Jurkat T cells): efficiently inhibit necrosis and result in high cell viability"
"COc1ccc([C@H]2[C@@H]3CCc4ccc(OC)cc4C3=NN2C(C)=O)cc1 (relative stereo) [Compound 142, (3R,3aS)-rel-2-acetyl-3,3a,4,5-tetrahydro-3-(4-methoxyphenyl)-8-methoxy-2H-benz[g]indazole]",,,"inhibition of CICD/necrosis of Jurkat cells, in words (Jurkat T cells): only the cis isomers (4) (FIG. 34A) and (19) (FIG. 34B) were found to efficiently inhibit necrosis"
"COc1ccc2c(c1)C1=NN(C(C)=O)[C@@H](c3ccc(F)cc3)[C@@H]1CC2 (relative stereo) [Compound 160, (3R,3aS)-rel-2-acetyl-3,3a,4,5-tetrahydro-3-(4-fluorophenyl)-8-methoxy-2H-benz[g]indazole]",,3.7 ± 0.75,"inhibition of CICD/necrosis of Jurkat cells, in words (Jurkat T cells): only the cis isomers (4) (FIG. 34A) and (19) (FIG. 34B) were found to efficiently inhibit necrosis"
